Measurements taken from patent EP0540969B1, “Derivatives of structurally modified VIP and pharmaceutical compositions containing them” (YEDA RESEARCH AND DEVELOPMENT CO. LTD., priority 1991, dated 1998).

Tests used:
castrated rats = test: Biological tests for penile reflexes (latency and number of E2 and cups) after transdermal application; format: in vivo; conditions: ointment with Sefsol 318 carrier; for Number of E2: during the test period (Fig. 1C); for Number of Cups: during the test period (Fig. 1D)
Description: The following ointment compositions were prepared and tested for transdermal application of lipophilic conjugated modified VIP derivatives in accordance with the present invention. Similar conjugates of unmodified VIP derivatives were tested for comparison. • 1. Ointment containing glycerine as a carrier: The ointment was prepared as follows: 2 g glycerine + 10 mg stearoyl-VIP + 7 drops of DMSO (dimethylsulfoxide). Each rat received 30-50 µg of stearoyl-VIP in about 10 µl ointment. (GLY in Figure 1). • 2. Ointment containing a lubricant as a carrier: The ointment was prepared as above, only glycerine was replaced by lubricant (K-Y Lubricating Jelly, Johnson & Johnson, containing propylene glycol and glycerine), 7 drops of DMSO equals about 130 µl. (LUB in Figure 1). • 3. Ointment containing a lubricant and nitroglycerine as a carrier: Prepared as in (2) above with 1.7 ml nitroglycerine (1 mg/ml), (LUB-NTG in Figure 1). • 4. Ointment containing Sefsol 318™ (12) as a carrier: The ointment composition was: 31.2 µl 10% Sefsol 318™ (glyceryl monocaprylate), 0.24 mg stearoyl-VIP in 31.2 µl DMSO (1-2µl per animal) (SEFS in Figure 1) or 0.24 mg stearoyl -Nle^17-VIP in 31.2µl DMSO (SEFS in Fig. 1).
The biological tests involved measurements of penile reflexes in castrated rats following transdermal application of modified and native VIP conjugates. […] In a further set of experiments the effects of stearoyl-VIP compounded with Sefsol 318™ were compared with those of stearoyl -Nle^17-VIP compounded with Sefsol 318™.
Rats with reduced sexual potential due to castration were employed. Male rats (250-300 g, about three month old) were kept in a 12-hours light, 12-hours dark cycle. Experiments were always conducted within the dark period, 2-6 hours after the onset of darkness. Male rats were castrated and given partial testosterone replacement (4 µg/100 g body weight) in the form of daily injection for 14-21 consecutive days (the duration of the experiment). Experiments were conducted one week following surgery.
A procedure was utilized that employed the technique that measures sexual reflexes in the penis, which enables direct evaluation of penile erection following transdermal administration of the drug. Successful reproduction depends, in large part, upon the precise execution of temporally organized, functionally related behavioural units. In these experiments, we concentrated on the final stages of the erection process (reddening of the penis accompanied by its distension and extension leading to complete erection) and monitored the latency time to the first E2 and first cup (13).
For testing, each animal was restrained in a supine position with the anterior portion of its body enclosed in a loosely fitting cylinder (7 cm diam). After a belt was secured around the torso, the glans penis was extruded from its sheath and gently held perpendicular to the abdomen by a thin wooden applicator positioned at the posterior of the penis. The legs of the male were held by the observer and this position was maintained throughout the test period. The duration of the session was 45 minutes. The latencies and numbers of E2 and cups were recorded and plotted.
An E2 is defined as a complete erection which can be followed by cup in which the penile tip is turned into a cup-like structure, whereby the glands flare out such that the penis is wider in its distal portion than its base. This final stage requires E2 and is probably a pre-requisite for ejaculation (13). Using all the parameters one can obtain a reliable measure of the sexual activity of the tested rat.
Six to ten animals were tested in this paradigm for each variable. Control animals received ointment compositions without St-VIP or St-Nle^17-VIP.

[1] = Stability compared with the unmodified conjugate; format: physicochemical; conditions: compared with stearoyl-VIP in which the amino acid sequence was not altered
rat [2] = test: Acute toxicology studies; format: in vivo; conditions: for gross side effects / mortality: dose of 7 mg/rat
Description: (§1) To assess the degree of toxicity and possible side effects of stearoyl-Nle^17-VIP, two types of studies were performed: 1. acute toxicology studies; 2. repeated dose toxicity studies.
(§2) The drug was prepared essentially as follows: 539 mg stearoyl-Nle^17-VIP+2.31 ml 10% Sefsol+2.31 ml 40% isopropanol. The experimental animal was the rat (160-300 g body weight).
(§3) In the acute toxicology studies, three routes of administration were chosen: 1. subcutaneous; 2. intravenous; 3. oral.

rat [3] = test: Repeated dose toxicity studies, daily topical application; format: in vivo; conditions: daily topical application (to the sex organ), dose of 3.5 mg/animal
Description: as §1, §2, §3

[4] = Skin penetration and body distribution of 125I-labelled VIP derivatives after transdermal application in Sefsol 318; format: in vivo
Description: These experiments were divided into two groups. In the first group of experiments we performed a time course of the distribution of radioactively labelled stearoyl-Nle^17-VIP (in Sefsol 318™), applied transdermally, in various organs of the body. In the second group of experiments we compared the penetration of four radioactively labelled VIP derivatives with Sefsol 318™ following transdermal application. Two to four animals were used for each data point. The derivatives were labelled with ^125I using the chloramine-T based method (14).
In the first group of experiments, stearoyl-Nle^17-VIP was radioactively labelled with ^125I. Each animal received 2.2 million CPM, in 6µl of the radioactive material+ 26µl ointment (ointment No. 4 in Example 5). Two animals were used for each time point in two independent experiments. To avoid oral absorbance, the animal mouth was sealed. At indicated times following topical application, animals were sacrificed and duplicate tissue samples were removed, weighed and counted in a gamma counter. Tissues measured were: lungs (LU), heart (HE), kidneys (KI), liver (LI) and intestine (IN).
In the second group of experiments compositions of Sefsol 318™ and VIP, St-VIP, Nle^17-VIP and St-Nle^17-VIP were prepared. The experiments were performed as in Figure 2 with the only difference that each animal received a 2.4 million CPM. 2-4 animals were utilized for each variable. Animals were sacrificed 30 minutes after the application of the drug.

Compound	Number of E2 (castrated rats)	Number of Cups (castrated rats)	stability relative to stearoyl-VIP [1]	LD50 (rat [2]; intravenous injection)	gross side effects (rat [2]; oral administration)	mortality (rat [2]; oral administration)	gross side effects (rat [2]; subcutaneous administration)	mortality (rat [2]; subcutaneous administration)	Latency to first E2 (castrated rats; 45 min session (Fig. 1A))	Latency to first cup (castrated rats; 45 min session (Fig. 1B))	mortality (rat [3])	side effects (rat [3])	tissue concentrations compared among VIP, St-VIP, Nle^17-VIP and St-Nle^17-VIP ([4]; in Sefsol 318, animals sacrificed 30 minutes after application (Fig. 3))	peak deliveries (time after administration) ([4]; in Sefsol 318, topical, lungs, heart, kidneys, liver, intestine (Fig. 2))	disappearance (time after administration) ([4]; in Sefsol 318, topical, tissue samples (Fig. 2))
CCCCCCCCCCCCCCCCCC(=O)N[C@@H](Cc1c[nH]cn1)C(=O)N[C@@H](CO)C(=O)N[C@@H](CC(=O)O)C(=O)N[C@@H](C)C(=O)N[C@H](C(=O)N[C@@H](Cc1ccccc1)C(=O)N[C@H](C(=O)N[C@@H](CC(=O)O)C(=O)N[C@@H](CC(N)=O)C(=O)N[C@@H](Cc1ccc(O)cc1)C(=O)N[C@H](C(=O)N[C@@H](CCCNC(=N)N)C(=O)N[C@@H](CC(C)C)C(=O)N[C@@H](CCCNC(=N)N)C(=O)N[C@@H](CCCCN)C(=O)N[C@@H](CCC(N)=O)C(=O)N[C@@H](CCSC)C(=O)N[C@@H](C)C(=O)N[C@H](C(=O)N[C@@H](CCCCN)C(=O)N[C@@H](CCCCN)C(=O)N[C@@H](Cc1ccc(O)cc1)C(=O)N[C@@H](CC(C)C)C(=O)N[C@@H](CC(N)=O)C(=O)N[C@@H](CO)C(=O)N[C@H](C(=O)N[C@@H](CC(C)C)C(=O)N[C@@H](CC(N)=O)C(N)=O)[C@@H](C)CC)C(C)C)[C@@H](C)O)[C@@H](C)O)C(C)C [St-VIP, stearoyl-VIP, reference compound]	24	12													
stearoyl -norleucine^17-VIP [St-Nle^17-VIP]	34	20	more stable	7 mg/rat	no gross side effects	no mortality	no gross side effects	no mortality	about 1 minute	10 min	no mortality	nor any side effects	highest concentrations	15 to 60 min	2.5 h
